{"source": "patent US8367700B2", "about": "“Substituted 4-(1.2,3,4-tetrahydroisoquinolin-2-yl)-4-oxobutyric acid amide as KCNQ2/3 modulators” (Gruenenthal GmbH, priority 2008, dated 2013)", "key": {"rat": {"test_system": "rat", "assay": "Formalin test in the rat", "assay_type": "in vivo, Sprague Dawley rats", "settings": "phase II (21-27 min after formalin administration)", "protocol": "The formalin test (Dubuisson, D. and Dennis, S. G., 1977, Pain, 4, 161-174) is a model for acute and chronic pain. In the tests described here, the chronic pain component (phase II of the formalin test; time interval 21-27 min after formalin administration) was analysed.\nA single formalin injection into the dorsal side of one rear paw was used to induce a biphase nociceptive response in experimental animals allowed to move freely, and the response was recorded by observation of three clearly distinguishable behaviour patterns.\nFormalin is administered subcutaneously in a volume of 50 μl and a concentration of 5% into the dorsal side of the right rear paw of each animal. The vehicle and the substances to be tested are administered intravenously 5 minutes before or orally 30 minutes before the formalin injection.\nThe specific behavioural changes, such as lifting and shaking the paw, shifting of weight by the animal and biting and licking responses, are observed and recorded continuously for 60 minutes after formalin administration. The behavioural changes are weighted differently (score 0-3) and a pain rate (PR) calculated using the formula below: PR=[(T0×0)+(T1×1)+(T2×2)+(T3×3)/180.\nSprague Dawley rats (Janvier, Belgium) are used as the phylum. The weight of the animals is between 180 and 200 g. The group size was n=10."}, "hKCNQ2/3 [1]": {"target": "T1, hKCNQ2/3 (Homo sapiens, UniProt O43525+O43526)", "T1 sequence (O43526 whole entry)": "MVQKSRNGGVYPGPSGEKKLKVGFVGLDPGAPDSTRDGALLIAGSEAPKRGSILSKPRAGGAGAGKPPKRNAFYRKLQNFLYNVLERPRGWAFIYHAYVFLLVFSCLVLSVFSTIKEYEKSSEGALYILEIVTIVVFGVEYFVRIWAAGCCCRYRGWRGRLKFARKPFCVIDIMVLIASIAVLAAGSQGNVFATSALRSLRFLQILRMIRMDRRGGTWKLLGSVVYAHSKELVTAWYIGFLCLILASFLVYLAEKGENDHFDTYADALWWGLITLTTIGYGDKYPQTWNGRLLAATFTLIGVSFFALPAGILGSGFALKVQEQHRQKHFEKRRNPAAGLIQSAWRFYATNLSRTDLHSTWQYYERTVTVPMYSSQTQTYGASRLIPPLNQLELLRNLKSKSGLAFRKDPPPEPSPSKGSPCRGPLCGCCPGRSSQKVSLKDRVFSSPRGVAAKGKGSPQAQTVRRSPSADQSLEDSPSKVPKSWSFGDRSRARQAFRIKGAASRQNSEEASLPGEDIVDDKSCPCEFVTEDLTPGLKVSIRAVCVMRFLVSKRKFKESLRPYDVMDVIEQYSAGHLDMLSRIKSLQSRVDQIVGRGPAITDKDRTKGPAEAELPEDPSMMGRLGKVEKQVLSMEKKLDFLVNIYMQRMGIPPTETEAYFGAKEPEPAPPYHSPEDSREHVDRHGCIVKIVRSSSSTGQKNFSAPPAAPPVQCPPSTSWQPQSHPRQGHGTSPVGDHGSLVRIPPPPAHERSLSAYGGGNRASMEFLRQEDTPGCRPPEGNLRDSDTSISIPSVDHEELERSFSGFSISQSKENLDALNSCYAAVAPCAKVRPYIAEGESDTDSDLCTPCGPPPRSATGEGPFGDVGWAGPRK", "T1 sequence (O43525 whole entry)": "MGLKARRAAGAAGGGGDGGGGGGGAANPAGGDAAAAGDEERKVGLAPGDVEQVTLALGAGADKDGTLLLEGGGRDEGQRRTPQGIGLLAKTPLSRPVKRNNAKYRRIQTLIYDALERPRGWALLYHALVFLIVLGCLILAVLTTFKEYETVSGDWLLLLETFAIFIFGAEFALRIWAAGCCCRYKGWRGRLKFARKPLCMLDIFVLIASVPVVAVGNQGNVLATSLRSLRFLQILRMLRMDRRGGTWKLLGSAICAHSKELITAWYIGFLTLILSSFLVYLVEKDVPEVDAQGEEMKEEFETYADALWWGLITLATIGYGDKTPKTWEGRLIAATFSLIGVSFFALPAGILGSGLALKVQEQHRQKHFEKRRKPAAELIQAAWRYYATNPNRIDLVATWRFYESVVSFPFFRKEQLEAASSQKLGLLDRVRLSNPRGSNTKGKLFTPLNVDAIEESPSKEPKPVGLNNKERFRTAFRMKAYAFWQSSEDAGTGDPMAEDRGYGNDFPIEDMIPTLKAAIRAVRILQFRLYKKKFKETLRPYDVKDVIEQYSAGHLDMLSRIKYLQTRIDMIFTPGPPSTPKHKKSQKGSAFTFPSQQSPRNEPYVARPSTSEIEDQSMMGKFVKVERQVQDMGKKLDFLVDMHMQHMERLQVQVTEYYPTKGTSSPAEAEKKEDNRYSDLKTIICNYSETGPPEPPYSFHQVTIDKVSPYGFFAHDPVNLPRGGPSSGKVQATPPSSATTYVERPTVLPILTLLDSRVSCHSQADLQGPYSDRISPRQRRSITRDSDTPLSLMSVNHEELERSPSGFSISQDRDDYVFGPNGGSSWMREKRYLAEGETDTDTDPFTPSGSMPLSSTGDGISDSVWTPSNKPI", "assay": "Voltage-clamp (patch-clamp) measurements on stably transfected hKCNQ2/3 CHO-K1 cell line", "assay_type": "cell-based", "parameters": "expressed in transfected cells; host or cells: CHO-K1 (stably transfected)", "settings": "10 μM test substance at −40 mV, current increase normalised against retigabine (10 μM), read-out: Patch-clamp % Efficacy @ 10 μM (Retigabine = 100%)", "protocol": "Voltage-Clamp Measurements\nIn order to confirm a KCNQ2/3 agonistic action of the substances electrophysiologically, patch-clamp measurements (Hamill O P, Marty A, Neher E, Sakmann B, Sigworth F J: Improved patch-clamp techniques for high-resolution current recording from cells and cell-free membrane patches, Pfluger's Arch. 1981 August; 391(2):85-100) were performed in voltage-clamp mode on a stably transfected hKCNQ2/3 CHO-K1 cell line. After formation of the gigaseal the cells were first clamped at a holding potential of −60 mV. Depolarising voltage jumps up to a potential of +20 mV were then applied (increment: 20 mV, duration: 1 second) in order to confirm the functional expression of KCNQ2/3-typical currents. The substances were tested at a potential of −40 mV. First of all the current increase induced by retigabine (10 μM) at −40 mV was recorded on each cell as a positive control. After completely washing out the retigabine effect (duration: 80 s) the test substance (10 μM) was applied. The current increase induced by the test substance was normalised against the retigabine effect and stated as the relative efficacy (see below)."}, "hKCNQ2/3 [2]": {"target": "T1, hKCNQ2/3", "assay": "Fluorescence assay using a voltage-sensitive dye (fluorimetry)", "assay_type": "cell-based", "parameters": "expressed in transfected cells; host or cells: CHO-K1", "settings": "CHO-K1 cells expressing KCNQ2/3", "protocol": "Pharmacological Experiments Fluorescence Assay Using a Voltage-Sensitive Dye\n[…] CHO-K1 cells expressing KCNQ2/3 channels are cultivated adherently at 37° C., 5% CO2 and 95% humidity in cell culture bottles (e.g. 80 cm^2 TC flasks, Nunc) with DMEM-high glucose (Sigma Aldrich, D7777) including 10% FCS (PAN Biotech, e.g. 3302-P270521) or alternatively MEM Alpha Medium (1×, liquid, Invitrogen, #22571), 10% foetal calf serum (FCS) (Invitrogen, #10270-106, heat-inactivated) and the necessary selection antibiotics.\nBefore being sown out for the measurements, the cells are washed with a 1×DPBS buffer without Ca^2+/Mg^2+ (e.g. Invitrogen, #14190-094) and detached from the bottom of the culture vessel by means of Accutase (PAA Laboratories, #L11-007) (incubation with Accutase for 15 min at 37° C.). The cell count then present is determined using a CASY™ cell counter (TCC model, Scharfe System) in order subsequently to apply 20,000 to 30,000 cells/well/100 μl of the described nutrient medium, depending on density optimisation for the individual cell line, to 96-well measuring plates of the Corning™ CeIIBIND™ type (flat clear-bottom black polystyrene microplates, #3340).\nIncubation is then carried out for one hour at room temperature, without gassing or adjusting the humidity, followed by incubation for 24 hours at 37° C., 5% CO2 and 95% humidity.\nThe voltage-sensitive fluorescent dye from the Membrane Potential Assay Kit (Red™ bulk format part R8123 for FLIPR, MDS Analytical Technologies™) is prepared by dissolving the contents of a vessel of Membrane Potential Assay Kit Red Component A in 200 ml of extracellular buffer (ES buffer, 120 mM NaCl, 1 mM KCl, 10 mM HEPES, 2 mM CaCl2, 2 mM MgCl2, 10 mM glucose; pH 7.4). After removal of the nutrient medium, the cells are washed with 200 μl of ES buffer, then covered with a layer of 100 μl of the dye solution prepared above and incubated for 45 min at room temperature with exclusion of light.\nThe fluorescence measurements are carried out with a BMG Labtech FLUOstar™ BMG Labtech NOVOstar™ or BMG Labtech POLARstar™ instrument (525 nm excitation, 560 nm emission, bottom-read mode). After incubation of the dye, 50 μl of the substances to be tested in the desired concentrations, or 50 μl of ES buffer for control purposes, are introduced into separate cavities of the measuring plate and incubated for 30 min at room temperature whilst being shielded from light. The fluorescence intensity of the dye is then measured for 5 min and the fluorescence value F1 of each well is thus determined at a given, constant time. 15 μl of a […] KCl solution ([…]) are then added to each well. The change in fluorescence is subsequently measured until all relevant measured values have been obtained (mainly 5-30 min). At a given time after KCl application, a fluorescence value F2 is determined, in this case at the time of the fluorescence peak.\nFor calculation, the fluorescence intensity F2 is compared with the fluorescence intensity F1, and the agonistic activity of the target compound on the potassium channel is determined therefrom. F2 and F1 are calculated as follows: […]\nIn order to determine whether a substance has an agonistic activity,\n[formula] for example, can be compared with\n[formula] of control cells.\n[formula] is determined by adding to the reaction batch only the buffer solution instead of the substance to be tested, determining the value F1K of the fluorescence intensity, adding the potassium ions as described above and measuring a value F2K of the fluorescence intensity. Then F2K and F1K are calculated as follows: […]\nA substance has an agonistic activity on the potassium channel if\n[formula] is greater than\nIndependently of the comparison of\n[formula] it is also possible to conclude that a target compound has an agonistic activity if an increase in\n[formula] is to be observed as the dosage of the target compound increases. […]"}}, "data": [{"compound": "O=C(CCC(=O)N1CCc2ccccc2C1c1ccccc1)NCc1cccc(C(F)(F)F)c1", "note": "(stereo not shown) [Example compound 1, 4-Oxo-4-(1-phenyl-3,4-dihydroisoquinolin-2(1H)-yl)-N-(3-(trifluoromethyl)benzyl)butyric acid amide]", "values": [{"measurement": "Formalin test rat i.v. @ 4.64 mg/kg % Reduction of nociceptive behaviour", "setting": "rat", "value": 40, "unit": "%"}, {"measurement": "Emax at 10 µM", "setting": "hKCNQ2/3 [1]", "value": 78, "unit": "%"}, {"measurement": "Emax at 10 µM", "setting": "hKCNQ2/3 [2]; 10 μM, relative to retigabine = 100%, read-out: Fluorimetry % Efficacy @ 10 μM (Retigabine = 100%)", "value": 110, "unit": "%"}, {"measurement": "EC50", "setting": "hKCNQ2/3 [2]", "value": 1.9, "unit": "µM"}]}]}
